Experimental data published in patent US20090317373A1, “Inhibition of the Anti-FVIII Immune Response” (Institut National De La Sante Et De La Recherche Medicale, priority 2005, published 2009).

Key:
[1] = test system: DCs according to Example 1; assay: Internalization of demannosylated FVIII-BDD-FITC by DCs (FACS); assay type: cell-based, human
Method: Finally, the inhibition of the internalization of demannosylated FVIII-BDD labelled with FITC was measured. FVIII-BDD conjugated to FITC and treated with EndoF1 (0.143 μM) or untreated is incubated with DCs according to Example 1 (4×10^5 cells/well of 100 μl) in X-VIVO medium without serum at 37° C. or at 4° C. Beforehand, the cells were preincubated, where appropriate, with mannan (1 mg/ml) for 30 min at 37° C. After incubation for 2 hours, the cells are washed and the mean intensities (mfi) are measured by FACS. The internalization of FVIII-BDD is expressed with respect to the calculated mfi in the presence of untreated FVIII alone (cf. FIG. 8).

autologous CD4+ T cells = assay: In vitro proliferation of autologous CD4+ T cells (tritiated thymidine); assay type: cell-based, human; conditions: DCs incubated with mannan (1 mg/ml) before FVIII; FIG. 4a
Method: The DCs of Example 1 were incubated with mannan (1 mg/ml) for 30 min at 37° C. FVIII dialyzed against RPMI 1640 medium (Kogenate, Bayer) was added (40 μg/ml, 0.143 μM) for 2 hours. The cells were then washed and incubated with LPS (1 μg/0.5 million cells) in complete medium for 48 hours. The cells were then washed and cultured (RPMI 1640 medium, supplemented with 10% male human AB serum, in 96-well cell culture plates with a round base with 200 μl per well) with autologous CD4+ T cells obtained from the PBMC of the corresponding donor using the MACS cell isolation kit (Miltenyi Biotech, Bergisch Gladbach, Germany). The number of CD4+ T cells was kept constant in each well (100,000 cells/well), while the number of DCs varied (5,000, 10,000 and 15,000 DCs in triplicate), giving a T:DC cell ratio of 20:1, 10:1, 6.6:1.
After culture for 4 days, 0.5 μCi of tritiated thymidine was added to each well. The cells were harvested after 16 hours and the radioactivity incorporated was counted.

[2] = test system: D9E9 (T cell clone specific for FVIII); assay: In vitro activation of FVIII-specific T cell clone D9E9 (IFN-gamma production); assay type: cell-based, human
Method: After washing, the DCs of Example 1 were resuspended in DMEM:F12 (1:1) medium containing 10% FCS and 10,000 DCs were introduced into each well of a 96-well cell culture plate with a round base. After incubation with mannan (1 mg/ml) in each well for 30 min, the DCs were cultured with 5,000 D9E9 (T cell clone specific for FVIII) in DMEM:F12 (1:1) medium containing 10% FCS and 20 U/ml of rhIL-2 with various doses of whole FVIII or FVIII-BDD (10, 8, 6, 4, 2 μg/ml) for 20 hours at 37° C. Like the D9E9 cells, the LE2E9 and BO2C11 lines of B cells transformed by EBV were cultured in the presence of 10 μg/ml of whole FVIII or FVIII-BDD. The control conditions were maintained in the absence of FVIII, D9E9 or DCs. As a negative control, hrFIX (Benefix, Baxter) was incubated with the cells at isomolar concentrations of FVIII. The supernatants were harvested at the end of the incubation period and tested for their production of IFNγ using the human IFN-γ Duo Set (DY285, R&D Systems) in accordance with the manufacturer's instructions.

FVIII = FVIII (Homo sapiens, UniProt P00451); assay: One-stage clotting test, residual FVIII activity in normal human plasma; assay type: biochemical; conditions: normal human plasma incubated with mannan 2 hours at 37° C.; FIG. 5a
Sequence of FVIII (P00451 20-1667 limits assumed): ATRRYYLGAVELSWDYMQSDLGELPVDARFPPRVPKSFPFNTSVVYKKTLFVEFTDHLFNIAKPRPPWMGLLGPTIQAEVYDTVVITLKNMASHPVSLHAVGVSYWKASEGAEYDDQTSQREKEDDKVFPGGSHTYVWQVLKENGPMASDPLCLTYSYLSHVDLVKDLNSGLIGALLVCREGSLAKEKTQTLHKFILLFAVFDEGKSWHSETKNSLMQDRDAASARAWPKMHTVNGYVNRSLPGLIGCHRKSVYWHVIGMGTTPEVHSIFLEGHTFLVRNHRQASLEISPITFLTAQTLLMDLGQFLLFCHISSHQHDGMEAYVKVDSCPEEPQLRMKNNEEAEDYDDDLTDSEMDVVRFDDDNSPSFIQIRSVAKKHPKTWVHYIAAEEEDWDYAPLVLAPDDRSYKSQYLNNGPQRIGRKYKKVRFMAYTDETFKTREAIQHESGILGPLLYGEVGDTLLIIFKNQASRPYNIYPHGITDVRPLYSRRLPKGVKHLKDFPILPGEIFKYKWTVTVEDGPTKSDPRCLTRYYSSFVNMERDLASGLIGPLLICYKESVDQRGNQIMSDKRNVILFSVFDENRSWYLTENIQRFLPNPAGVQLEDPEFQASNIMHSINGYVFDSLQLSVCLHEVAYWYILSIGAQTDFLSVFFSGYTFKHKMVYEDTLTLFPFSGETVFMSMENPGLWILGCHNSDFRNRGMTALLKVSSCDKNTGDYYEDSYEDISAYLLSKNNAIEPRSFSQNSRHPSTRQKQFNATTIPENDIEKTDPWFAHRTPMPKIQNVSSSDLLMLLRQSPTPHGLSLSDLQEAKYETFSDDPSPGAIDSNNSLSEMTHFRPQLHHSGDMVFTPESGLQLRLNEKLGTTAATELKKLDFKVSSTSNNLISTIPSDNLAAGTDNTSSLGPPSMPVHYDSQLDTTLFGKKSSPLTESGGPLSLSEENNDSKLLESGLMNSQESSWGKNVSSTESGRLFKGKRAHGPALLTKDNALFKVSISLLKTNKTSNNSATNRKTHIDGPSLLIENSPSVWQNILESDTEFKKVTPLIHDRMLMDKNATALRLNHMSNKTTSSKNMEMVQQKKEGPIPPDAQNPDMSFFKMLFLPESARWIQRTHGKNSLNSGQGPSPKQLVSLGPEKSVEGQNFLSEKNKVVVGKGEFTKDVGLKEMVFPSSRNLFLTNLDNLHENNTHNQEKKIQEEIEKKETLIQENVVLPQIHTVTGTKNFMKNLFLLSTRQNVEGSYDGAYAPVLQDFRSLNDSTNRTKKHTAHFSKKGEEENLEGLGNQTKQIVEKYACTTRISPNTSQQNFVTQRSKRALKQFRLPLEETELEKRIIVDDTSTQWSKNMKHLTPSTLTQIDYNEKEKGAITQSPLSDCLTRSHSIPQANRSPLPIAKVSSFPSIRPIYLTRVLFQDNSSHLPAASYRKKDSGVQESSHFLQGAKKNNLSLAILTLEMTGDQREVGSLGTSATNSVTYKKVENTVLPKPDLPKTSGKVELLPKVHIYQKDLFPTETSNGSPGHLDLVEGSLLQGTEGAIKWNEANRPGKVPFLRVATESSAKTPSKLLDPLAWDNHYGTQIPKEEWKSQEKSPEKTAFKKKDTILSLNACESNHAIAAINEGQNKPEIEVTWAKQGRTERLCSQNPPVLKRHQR
Sequence of FVIII (P00451 1668-2351 limits assumed): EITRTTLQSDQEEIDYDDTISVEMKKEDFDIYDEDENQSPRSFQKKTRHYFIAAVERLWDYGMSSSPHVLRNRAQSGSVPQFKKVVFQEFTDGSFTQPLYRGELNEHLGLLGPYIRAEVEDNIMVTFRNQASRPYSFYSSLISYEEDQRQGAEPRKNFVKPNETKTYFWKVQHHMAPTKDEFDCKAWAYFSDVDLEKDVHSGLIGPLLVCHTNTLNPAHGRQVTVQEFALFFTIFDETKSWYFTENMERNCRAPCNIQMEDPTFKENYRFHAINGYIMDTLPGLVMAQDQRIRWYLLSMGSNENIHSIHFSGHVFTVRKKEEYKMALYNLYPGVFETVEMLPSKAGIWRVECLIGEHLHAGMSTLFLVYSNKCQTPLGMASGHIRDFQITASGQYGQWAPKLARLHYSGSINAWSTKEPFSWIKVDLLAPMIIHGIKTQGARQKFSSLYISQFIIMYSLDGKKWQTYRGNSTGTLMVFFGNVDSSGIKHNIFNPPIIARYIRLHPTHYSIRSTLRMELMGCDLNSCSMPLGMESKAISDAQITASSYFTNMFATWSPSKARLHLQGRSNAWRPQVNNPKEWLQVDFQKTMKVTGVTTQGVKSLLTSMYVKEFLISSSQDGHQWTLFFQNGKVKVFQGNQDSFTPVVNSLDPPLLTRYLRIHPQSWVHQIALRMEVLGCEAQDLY
Method: Normal human plasma was incubated with an identical volume of mannan ([…]) for 2 hours at 37° C. The residual FVIII activity was measured in a one-stage clotting test using human placental […] as an activator (Dade Behring Marburg GmbH, Marburg, Germany) and FVIII-depleted plasma (Dade Behring Marburg GmbH, Marburg, Germany) as a substrate and a fibrin timer (Sysmex CA500, Dade Behring). The dilutions were performed in Owren-Koller buffer (Diagnostica Stago, Asnieres, France).

effect on proclotting activity of FVIII (FVIII): does not block
Substance: mannan
further reduction of internalization of EndoF1-treated FVIII ([1]; in the presence of mannan, results not shown): 32%
inhibition of the internalization of FVIII-BDD ([1]; with mannan (1 mg/ml), without deglycosylation, FIG. 8): 45±7%
proliferation of T cells (autologous CD4+ T cells): levels comparable to those of negative controls
inhibition of FVIII-induced activation of D9E9 cells ([2]; DCs preincubated with mannan (1 mg/ml), FIG. 4b (B)): up to 84%
activation of D9E9 cells by autologous B cells pulsed with FVIII, LE2E9 ([2]; in presence of mannan, FIG. 4b (C)): does not prevent activation
